Among the data in PubChem BioAssay AID1919674 are IC50 values, retold here.

In the test the target is Solute carrier family 12 member 2 (Homo sapiens) (UniProt P55011). As to the kind of experiment: SLC12A2 cotransporter inhibitors, dose response, HEK-293 overexpressing cells, thallium flux (AID 1919674). Conditions: HEK-293 SLC12A2 OE, thallium flux fluorescence (FLIPR).
Sequence of Solute carrier family 12 member 2 (Homo sapiens) (P55011 whole entry, looked up): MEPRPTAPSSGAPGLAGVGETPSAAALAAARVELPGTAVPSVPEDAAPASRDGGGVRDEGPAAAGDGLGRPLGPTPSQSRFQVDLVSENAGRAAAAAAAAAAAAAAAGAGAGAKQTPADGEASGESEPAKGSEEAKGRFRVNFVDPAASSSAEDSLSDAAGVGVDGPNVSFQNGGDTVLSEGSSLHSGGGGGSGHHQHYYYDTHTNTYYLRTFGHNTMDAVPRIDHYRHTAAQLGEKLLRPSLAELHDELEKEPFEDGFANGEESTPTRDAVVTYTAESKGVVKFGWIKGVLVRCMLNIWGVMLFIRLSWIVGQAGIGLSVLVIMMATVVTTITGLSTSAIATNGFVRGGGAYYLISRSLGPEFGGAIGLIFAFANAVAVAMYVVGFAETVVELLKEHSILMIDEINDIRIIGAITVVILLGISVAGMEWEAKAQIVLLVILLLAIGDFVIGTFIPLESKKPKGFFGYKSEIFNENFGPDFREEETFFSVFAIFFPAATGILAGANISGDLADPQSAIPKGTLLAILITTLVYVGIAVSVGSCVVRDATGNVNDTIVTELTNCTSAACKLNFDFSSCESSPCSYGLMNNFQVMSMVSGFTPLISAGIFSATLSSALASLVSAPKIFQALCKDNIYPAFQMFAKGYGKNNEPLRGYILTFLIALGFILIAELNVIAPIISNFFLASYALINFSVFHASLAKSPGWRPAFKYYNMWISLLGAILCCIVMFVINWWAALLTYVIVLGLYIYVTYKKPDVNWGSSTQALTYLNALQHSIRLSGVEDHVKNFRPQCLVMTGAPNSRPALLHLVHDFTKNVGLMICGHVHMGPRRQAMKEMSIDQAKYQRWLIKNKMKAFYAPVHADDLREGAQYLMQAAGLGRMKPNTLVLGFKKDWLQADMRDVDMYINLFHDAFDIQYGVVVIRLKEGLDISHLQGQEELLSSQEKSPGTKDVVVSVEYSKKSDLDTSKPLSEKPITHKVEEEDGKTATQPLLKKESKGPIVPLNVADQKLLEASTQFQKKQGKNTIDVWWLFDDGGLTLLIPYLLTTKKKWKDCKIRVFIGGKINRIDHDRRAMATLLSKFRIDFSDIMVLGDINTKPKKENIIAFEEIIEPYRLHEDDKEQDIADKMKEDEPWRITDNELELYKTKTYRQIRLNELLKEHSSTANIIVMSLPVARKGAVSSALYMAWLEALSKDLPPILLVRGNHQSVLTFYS

Usually IC50 stands for the concentration that gives 50% inhibition. For the molecule `[Tl+]`, the half-inhibitory concentration (IC50) is 600 µM.
